Measurements: ChEMBL document CHEMBL3046489, “Synthesis of new, potent avermectin-like insecticidal agents” (Carbohydr Res, 2005)
Calls of active or inactive are those of the source. The calls are words filed in the database; no cut-off is given here.

Tests used:
Trichoplusia ni [1] = test: Insecticidal activity against Trichoplusia ni (cabbage looper) assessed as mortality after 6 hr by cabbage leaf dip bioassay; assay type: functional, organism-based
[2] = Toxicity in Mus musculus ICR (mouse); assay type: organism-based; settings: in vivo
Trichoplusia ni [3] = test: Insecticidal activity against Trichoplusia ni (cabbage looper) assessed as mortality after 3 days by cabbage leaf dip bioassay; assay type: functional; parameters: concentration or dose not given beside the values
Trichoplusia ni [4] = test: Insecticidal activity against Trichoplusia ni (cabbage looper) assessed as mortality after 2 days by cabbage leaf dip bioassay; assay type: functional, organism-based

CC[C@H](C)[C@H]1O[C@]2(C=C[C@@H]1C)C[C@@H]1C[C@@H](C/C=C(\C)[C@@H](O[C@H]3C[C@H](OC)[C@@H](O[C@H]4O[C@@H](C)[C@@H](OC)[C@@H](OC)[C@@H]4OC)[C@H](C)O3)[C@@H](C)/C=C/C=C3\CO[C@@H]4[C@H](O)C(C)=C[C@@H](C(=O)O1)[C@]34O)O2
Activity (Trichoplusia ni [1]): Active | LD50 [2]: 87.5 mg/kg | mortality (Trichoplusia ni [3]): 93%

CC[C@H](C)[C@H]1O[C@]2(C=C[C@@H]1C)C[C@@H]1C[C@@H](C/C=C(\C)[C@@H](O[C@H]3C[C@H](OC)[C@@H](O[C@@H]4C[C@@](C)(OC)[C@@H](OC(C)=O)[C@H](C)O4)[C@H](C)O3)[C@@H](C)/C=C/C=C3\CO[C@@H]4[C@H](O)C(C)=C[C@@H](C(=O)O1)[C@]34O)O2
mortality (Trichoplusia ni [3]): 72%

CC[C@H](C)[C@H]1O[C@]2(C=C[C@@H]1C)C[C@@H]1C[C@@H](C/C=C(\C)[C@@H](O[C@H]3C[C@H](OC)[C@@H](O[C@@H]4C[C@@H](OC)[C@@H](NC)[C@@H](C)O4)[C@H](C)O3)[C@@H](C)/C=C/C=C3\CO[C@@H]4[C@H](O)C(C)=C[C@@H](C(=O)O1)[C@]34O)O2.O=C(O)c1ccccc1
Activity (Trichoplusia ni [4]): Active | mortality (Trichoplusia ni [3]): 90%

CC[C@H](C)[C@H]1O[C@]2(C=C[C@@H]1C)C[C@@H]1C[C@@H](C/C=C(\C)[C@@H](O[C@H]3C[C@H](OC)[C@@H](O[C@H]4C[C@H](OC)[C@@H](O)[C@H](C)O4)[C@H](C)O3)[C@@H](C)/C=C/C=C3\CO[C@@H]4[C@H](O)C(C)=C[C@@H](C(=O)O1)[C@]34O)O2 [ABAMECTIN COMPONENT B1A]
Activity (Trichoplusia ni [4]): Active | mortality (Trichoplusia ni [3]): 53%

CC[C@H](C)[C@H]1O[C@]2(C=C[C@@H]1C)C[C@@H]1C[C@@H](C/C=C(\C)[C@@H](O[C@H]3C[C@H](OC)[C@@H](O[C@@H]4C[C@@](C)(O)[C@@H](OC(C)=O)[C@H](C)O4)[C@H](C)O3)[C@@H](C)/C=C/C=C3\CO[C@@H]4[C@H](O)C(C)=C[C@@H](C(=O)O1)[C@]34O)O2
mortality (Trichoplusia ni [3]): 61%

CC[C@H](C)[C@H]1O[C@]2(C=C[C@@H]1C)C[C@@H]1C[C@@H](C/C=C(\C)[C@@H](O[C@H]3C[C@H](OC)[C@@H](O[C@@H]4C[C@@](C)(OC)[C@@H](OC)[C@H](C)O4)[C@H](C)O3)[C@@H](C)/C=C/C=C3\CO[C@@H]4[C@H](O)C(C)=C[C@@H](C(=O)O1)[C@]34O)O2
mortality (Trichoplusia ni [3]): 85%

CC[C@H](C)[C@H]1O[C@]2(C=C[C@@H]1C)C[C@@H]1C[C@@H](C/C=C(\C)[C@@H](O[C@H]3C[C@H](OC)[C@@H](O[C@H]4O[C@@H](C)[C@@H](O)[C@@H](O)[C@@H]4O)[C@H](C)O3)[C@@H](C)/C=C/C=C3\CO[C@@H]4[C@H](O)C(C)=C[C@@H](C(=O)O1)[C@]34O)O2
mortality (Trichoplusia ni [3]): 37%

CC[C@H](C)[C@H]1O[C@]2(C=C[C@@H]1C)C[C@@H]1C[C@@H](C/C=C(\C)[C@@H](O[C@H]3C[C@H](OC)[C@@H](O[C@@H]4C[C@@](C)(OC)[C@@H](O)[C@H](C)O4)[C@H](C)O3)[C@@H](C)/C=C/C=C3\CO[C@@H]4[C@H](O)C(C)=C[C@@H](C(=O)O1)[C@]34O)O2
Activity (Trichoplusia ni [1]): Active | LD50 [2]: 17.5 mg/kg | mortality (Trichoplusia ni [3]): 93%
